Measurements from US11655240B1, “Crystal form of compound and fumaric acid, pharmaceutical composition and method for treating coronavirus-induced diseases” (priority 2022, dated 2023).

Key:
Assay type in all cases: physicochemical
[1] = Particle size distribution by laser particle size analyzer Mastersizer 3000; conditions: dispersed in n-heptane
Procedure: The particle size distribution of the APIs prepared in the examples of the present disclosure was determined by using a laser particle size analyzer Mastersizer 3000 (Malvern Panalytical, UK). Specifically, about 20 mg of the API (for example, API 5) prepared in the example of the present disclosure was taken, dispersed in 8 mL of n-heptane, sonicated for 10 seconds, added to a sample dispersion unit until the shading degree was in the range from 10% to 20%, and then measured. The stirring speed of the dispersion chamber was 2000 rpm, and the duration was 10 s.

[2] = Stability of crystal form A, influencing factor and accelerated stability experiments
Source text: In addition, the inventors also investigated the stability of the crystal form A under conditions of the influencing factor experiment and the accelerated stability experiment, and the results is as follows: […]

[3] = Thermogravimetric analysis (TGA); conditions: 10° C./min
Procedure: A thermogravimetric analyzer TA Discovery 55 (TA, US) was used. 2 mg to 5 mg of the sample was placed in an equilibrated open aluminum sample pan and automatically weighed in a TGA oven. The sample was heated to the final temperature at a rate of 10° C./min with a nitrogen purge rate of 60 mL/min at the sample and 40 mL/min at the balance.

[4] = Dynamic vapor sorption (DVS) analysis
Procedure: Dynamic vapor sorption analysis was performed using DVS Intrinsic (SMS, UK). The analysis adopted a gradient mode, the humidity change was 50%, 95%, 0%, and 50% in sequence, the humidity change of each gradient in the range from 0% to 90% was 10%, and the end point of the gradient was determined by dm/dt method. The end point of the gradient was determined in response to the dm/dt being less than 0.002% and maintained for 10 minutes.

| Compound | Particle size D50 of API [1] [μm] | Particle size D90 of API [1] [μm] | other results |
| --- | --- | --- | --- |
| Cn1cnc(Cn2c(=O)[nH]/c(=N\c3cc4cn(C)nc4cc3Cl)n(Cc3cc(F)c(F)cc3F)c2=O)n1 [API 16] | 38.3 | 70.5 |  |
| Cn1cnc(Cn2c(=O)[nH]/c(=N\c3cc4cn(C)nc4cc3Cl)n(Cc3cc(F)c(F)cc3F)c2=O)n1 [API 10] | 22.1 | 43.4 |  |
| Cn1cnc(Cn2c(=O)[nH]/c(=N\c3cc4cn(C)nc4cc3Cl)n(Cc3cc(F)c(F)cc3F)c2=O)n1 [API 3] | 8.4 | 10.2 |  |
| Cn1cnc(Cn2c(=O)[nH]/c(=N\c3cc4cn(C)nc4cc3Cl)n(Cc3cc(F)c(F)cc3F)c2=O)n1 [API 13] | 22.4 | 48.9 |  |
| Cn1cnc(Cn2c(=O)[nH]/c(=N\c3cc4cn(C)nc4cc3Cl)n(Cc3cc(F)c(F)cc3F)c2=O)n1 [API 1] | 28.9 | 58.6 |  |
| Cn1cnc(Cn2c(=O)[nH]/c(=N\c3cc4cn(C)nc4cc3Cl)n(Cc3cc(F)c(F)cc3F)c2=O)n1 [API 14] | 20.5 | 41.3 |  |
| Cn1cnc(Cn2c(=O)[nH]/c(=N\c3cc4cn(C)nc4cc3Cl)n(Cc3cc(F)c(F)cc3F)c2=O)n1 [crystal form A, (6E)-6-[(6-chloro-2-methyl-2H-indazol-5-yl)imino]-3-[(1-methyl-1H-1,2,4-triazol-3-yl)methyl]-1-(2,4,5-trifluorobenzyl)-1,3,5-triazine-2,4-dione fumaric acid] |  |  | Stability (appearance, purity, dissociation, crystalline transformation) ([2]; 40° C. and 75% relative humidity (RH), within 2 months): stable; Stability (appearance and purity) ([2]; high temperature, high humidity, and light irradiation, within 30 days): stable; TGA decomposition temperature ([3]; nitrogen): higher than 240 °C; TGA weight loss ([3]; heated to 150° C.): basically no weight loss; Hygroscopicity ([4]; DVS): almost no hygroscopicity; Crystal form stability, XRPD before and after DVS experiment ([4]; FIG. 3): very stable, is not prone to crystalline transformation; DVS weight loss ([4]; at 0% RH): 0.02%; DVS weight gain ([4]; at 80% RH): 0.06% |
| Cn1cnc(Cn2c(=O)[nH]/c(=N\c3cc4cn(C)nc4cc3Cl)n(Cc3cc(F)c(F)cc3F)c2=O)n1 [API 2] | 20.3 | 40.1 |  |
| Cn1cnc(Cn2c(=O)[nH]/c(=N\c3cc4cn(C)nc4cc3Cl)n(Cc3cc(F)c(F)cc3F)c2=O)n1 [API 17] | 35.4 | 65.7 |  |
| Cn1cnc(Cn2c(=O)[nH]/c(=N\c3cc4cn(C)nc4cc3Cl)n(Cc3cc(F)c(F)cc3F)c2=O)n1 [API 9] | 8.8 | 10.4 |  |
| Cn1cnc(Cn2c(=O)[nH]/c(=N\c3cc4cn(C)nc4cc3Cl)n(Cc3cc(F)c(F)cc3F)c2=O)n1 [API 15] | 10.2 | 15.8 |  |
| Cn1cnc(Cn2c(=O)[nH]/c(=N\c3cc4cn(C)nc4cc3Cl)n(Cc3cc(F)c(F)cc3F)c2=O)n1 [API 5] | 18.6 | 34.2 |  |
| Cn1cnc(Cn2c(=O)[nH]/c(=N\c3cc4cn(C)nc4cc3Cl)n(Cc3cc(F)c(F)cc3F)c2=O)n1 [API 11] | 20.6 | 42.7 |  |
| Cn1cnc(Cn2c(=O)[nH]/c(=N\c3cc4cn(C)nc4cc3Cl)n(Cc3cc(F)c(F)cc3F)c2=O)n1 [API 12] | 8.3 | 10.9 |  |
| Cn1cnc(Cn2c(=O)[nH]/c(=N\c3cc4cn(C)nc4cc3Cl)n(Cc3cc(F)c(F)cc3F)c2=O)n1 [API 6] | 8.9 | 15.6 |  |
| Cn1cnc(Cn2c(=O)[nH]/c(=N\c3cc4cn(C)nc4cc3Cl)n(Cc3cc(F)c(F)cc3F)c2=O)n1 [API 7] | 22.3 | 45.5 |  |
| Cn1cnc(Cn2c(=O)[nH]/c(=N\c3cc4cn(C)nc4cc3Cl)n(Cc3cc(F)c(F)cc3F)c2=O)n1 [API 4] | 23.5 | 46.7 |  |
| Cn1cnc(Cn2c(=O)[nH]/c(=N\c3cc4cn(C)nc4cc3Cl)n(Cc3cc(F)c(F)cc3F)c2=O)n1 [API 8] | 20.1 | 40.7 |  |
